From ChEMBL document CHEMBL1629583, “Establishment of in vitro susceptibility testing methodologies and comparative activities of piperacillin in combination with the penem {beta}-lactamase inhibitor BLI-489” (2009)
Values after ≈ are worked out from the molar mass of the structure shown.

Assays:
Format in all cases: functional
[1] = test system: Enterococcus faecalis; assay: Antimicrobial activity against vancomycin-resistant Enterococcus faecalis clinical isolate after 18 to 22 hrs by broth microdilution method
[2] = test system: Streptococcus pneumoniae; assay: Antimicrobial activity against penicillin-intermediate Streptococcus pneumoniae clinical isolate after 18 to 22 hrs by broth microdilution method
[3] = test system: Streptococcus agalactiae; assay: Antimicrobial activity against Streptococcus agalactiae clinical isolate after 18 to 22 hrs by broth microdilution method
[4] = test system: Enterococcus hirae; assay: Antimicrobial activity against Enterococcus hirae clinical isolate after 18 to 22 hrs by broth microdilution method
[5] = test system: Enterococcus durans; assay: Antimicrobial activity against Enterococcus durans clinical isolate after 18 to 22 hrs by broth microdilution method
[6] = test system: Streptococcus pneumoniae; assay: Antimicrobial activity against penicillin-resistant Streptococcus pneumoniae clinical isolate after 18 to 22 hrs by broth microdilution method
[7] = test system: Streptococcus pyogenes; assay: Antimicrobial activity against Streptococcus pyogenes clinical isolate after 18 to 22 hrs by broth microdilution method
[8] = test system: Enterococcus gallinarum; assay: Antimicrobial activity against Enterococcus gallinarum clinical isolate after 18 to 22 hrs by broth microdilution method
[9] = test system: Staphylococcus haemolyticus; assay: Antimicrobial activity against Staphylococcus haemolyticus clinical isolate after 18 to 22 hrs by broth microdilution method
[10] = test system: Enterococcus casseliflavus; assay: Antimicrobial activity against Enterococcus casseliflavus clinical isolate after 18 to 22 hrs by broth microdilution method
[11] = test system: Streptococcus pneumoniae; assay: Antimicrobial activity against penicillin-susceptible Streptococcus pneumoniae clinical isolate after 18 to 22 hrs by broth microdilution method
[12] = test system: Enterococcus faecium; assay: Antimicrobial activity against vancomycin-resistant Enterococcus faecium clinical isolate after 18 to 22 hrs by broth microdilution method
[13] = test system: Enterococcus faecalis; assay: Antimicrobial activity against Enterococcus faecalis clinical isolate after 18 to 22 hrs by broth microdilution method
[14] = test system: Staphylococcus epidermidis; assay: Antimicrobial activity against methicillin-resistant Staphylococcus epidermidis clinical isolate after 18 to 22 hrs by broth microdilution method
[15] = test system: Enterococcus faecium; assay: Antimicrobial activity against Enterococcus faecium clinical isolate after 18 to 22 hrs by broth microdilution method
[16] = test system: Staphylococcus aureus; assay: Antimicrobial activity against methicillin-susceptible Staphylococcus aureus clinical isolate after 18 to 22 hrs by broth microdilution method
[17] = test system: Staphylococcus aureus; assay: Antimicrobial activity against methicillin-resistant Staphylococcus aureus clinical isolate after 18 to 22 hrs by broth microdilution method
[18] = test system: Staphylococcus epidermidis; assay: Antimicrobial activity against methicillin-susceptible Staphylococcus epidermidis clinical isolate after 18 to 22 hrs by broth microdilution method
[19] = test system: Enterococcus avium; assay: Antimicrobial activity against Enterococcus avium clinical isolate after 18 to 22 hrs by broth microdilution method

CC(=O)NC[C@H]1CN(c2ccc(N3CCOCC3)c(F)c2)C(=O)O1 [LINEZOLID]
MIC50 [1]: 2 µg/mL (≈ 5.93 µM)
MIC90 [1]: 2 µg/mL (≈ 5.93 µM)
MIC50 [2]: 0.5 µg/mL (≈ 1.48 µM)
MIC90 [2]: 1 µg/mL (≈ 2.96 µM)
MIC50 [3]: 1 µg/mL (≈ 2.96 µM)
MIC90 [3]: 2 µg/mL (≈ 5.93 µM)
MIC50 [4]: 2 µg/mL (≈ 5.93 µM)
MIC90 [4]: 2 µg/mL (≈ 5.93 µM)
MIC50 [5]: 2 µg/mL (≈ 5.93 µM)
MIC90 [5]: 2 µg/mL (≈ 5.93 µM)
MIC50 [6]: 1 µg/mL (≈ 2.96 µM)
MIC90 [6]: 1 µg/mL (≈ 2.96 µM)
MIC50 [7]: 1 µg/mL (≈ 2.96 µM)
MIC90 [7]: 1 µg/mL (≈ 2.96 µM)
MIC50 [8]: 2 µg/mL (≈ 5.93 µM)
MIC90 [8]: 2 µg/mL (≈ 5.93 µM)
MIC [9]: 1 µg/mL (≈ 2.96 µM)
MIC50 [9]: 1 µg/mL (≈ 2.96 µM)
MIC90 [9]: 2 µg/mL (≈ 5.93 µM)
MIC50 [10]: 2 µg/mL (≈ 5.93 µM)
MIC90 [10]: 2 µg/mL (≈ 5.93 µM)
MIC50 [11]: 0.5 µg/mL (≈ 1.48 µM)
MIC90 [11]: 1 µg/mL (≈ 2.96 µM)
MIC50 [12]: 2 µg/mL (≈ 5.93 µM)
MIC90 [12]: 2 µg/mL (≈ 5.93 µM)
MIC50 [13]: 2 µg/mL (≈ 5.93 µM)
MIC90 [13]: 2 µg/mL (≈ 5.93 µM)
MIC [14]: 1 µg/mL (≈ 2.96 µM)
MIC50 [14]: 1 µg/mL (≈ 2.96 µM)
MIC90 [14]: 2 µg/mL (≈ 5.93 µM)
MIC50 [15]: 2 µg/mL (≈ 5.93 µM)
MIC90 [15]: 2 µg/mL (≈ 5.93 µM)
MIC50 [16]: 4 µg/mL (≈ 11.9 µM)
MIC90 [16]: 4 µg/mL (≈ 11.9 µM)
MIC50 [17]: 2 µg/mL (≈ 5.93 µM)
MIC90 [17]: 4 µg/mL (≈ 11.9 µM)
MIC [18]: 1 µg/mL (≈ 2.96 µM)
MIC50 [18]: 1 µg/mL (≈ 2.96 µM)
MIC90 [18]: 2 µg/mL (≈ 5.93 µM)
MIC50 [19]: 2 µg/mL (≈ 5.93 µM)
MIC90 [19]: 2 µg/mL (≈ 5.93 µM)

CN[C@H](CC(C)C)C(=O)N[C@H]1C(=O)N[C@@H](CC(N)=O)C(=O)N[C@H]2C(=O)N[C@H]3C(=O)N[C@H](C(=O)N[C@H](C(=O)O)c4cc(O)cc(O)c4-c4cc3ccc4O)[C@H](O)c3ccc(c(Cl)c3)Oc3cc2cc(c3O[C@@H]2O[C@H](CO)[C@@H](O)[C@H](O)[C@H]2O[C@H]2C[C@](C)(N)[C@H](O)[C@H](C)O2)Oc2ccc(cc2Cl)[C@H]1O [VANCOMYCIN]
MIC50 [1]: > 32 µg/mL
MIC90 [1]: > 32 µg/mL
MIC50 [2]: 0.25 µg/mL (≈ 0.173 µM)
MIC90 [2]: 0.25 µg/mL (≈ 0.173 µM)
MIC [3]: 0.25 µg/mL (≈ 0.173 µM)
MIC50 [3]: 0.25 µg/mL (≈ 0.173 µM)
MIC90 [3]: 0.5 µg/mL (≈ 0.345 µM)
MIC50 [4]: 0.5 µg/mL (≈ 0.345 µM)
MIC90 [4]: 4 µg/mL (≈ 2.76 µM)
MIC50 [5]: 0.5 µg/mL (≈ 0.345 µM)
MIC90 [5]: 4 µg/mL (≈ 2.76 µM)
MIC50 [6]: 0.25 µg/mL (≈ 0.173 µM)
MIC90 [6]: 0.25 µg/mL (≈ 0.173 µM)
MIC50 [7]: 0.25 µg/mL (≈ 0.173 µM)
MIC90 [7]: 0.25 µg/mL (≈ 0.173 µM)
MIC50 [8]: 0.5 µg/mL (≈ 0.345 µM)
MIC90 [8]: 4 µg/mL (≈ 2.76 µM)
MIC50 [9]: 1 µg/mL (≈ 0.69 µM)
MIC90 [9]: 1 µg/mL (≈ 0.69 µM)
MIC50 [10]: 0.5 µg/mL (≈ 0.345 µM)
MIC90 [10]: 4 µg/mL (≈ 2.76 µM)
MIC50 [11]: 0.12 µg/mL (≈ 0.0828 µM)
MIC90 [11]: 0.25 µg/mL (≈ 0.173 µM)
MIC [12]: > 32 µg/mL
MIC50 [12]: > 32 µg/mL
MIC90 [12]: > 32 µg/mL
MIC50 [13]: 1 µg/mL (≈ 0.69 µM)
MIC90 [13]: 2 µg/mL (≈ 1.38 µM)
MIC50 [14]: 2 µg/mL (≈ 1.38 µM)
MIC90 [14]: 2 µg/mL (≈ 1.38 µM)
MIC50 [15]: 0.5 µg/mL (≈ 0.345 µM)
MIC90 [15]: 1 µg/mL (≈ 0.69 µM)
MIC50 [16]: 0.5 µg/mL (≈ 0.345 µM)
MIC90 [16]: 1 µg/mL (≈ 0.69 µM)
MIC50 [17]: 1 µg/mL (≈ 0.69 µM)
MIC90 [17]: 1 µg/mL (≈ 0.69 µM)
MIC50 [18]: 1 µg/mL (≈ 0.69 µM)
MIC90 [18]: 1 µg/mL (≈ 0.69 µM)
MIC [19]: 0.25 µg/mL (≈ 0.173 µM)
MIC50 [19]: 0.25 µg/mL (≈ 0.173 µM)
MIC90 [19]: 0.5 µg/mL (≈ 0.345 µM)
